Results published in US12344610B2, “APOL1 inhibitors and methods of use” (Maze Therapeutics, Inc., priority 2022, dated 2025).
pEC50: −log10 of the molar value.

test system: Trypanosoma brucei Lister 427 VSG221 with APOL1 G0 recombinant protein; assay: APOL1 G0 trypanosome cell rescue assay (Example B5); assay type: cell-based; settings: Trypanosoma brucei, 20 h, read-out: APOL1 G0 Trypanosome Rescue EC50, Trypanosoma brucei Lister 427 VSG221 with APOL1 G0 recombinant protein, 20 hours, CellTiter-Glo; geometric mean of at least 2 assay runs; † = single assay run
In short: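 Recombinant mature APOL1 (residues 28-398, His-tag removed, E. coli-expressed, refolded from inclusion bodies, DDM buffer) at […] added with 250 trypanosomes/well in modified HMI-9 media. Duplicate 11-point 2-fold compound series, 0.4% DMSO; 20 h at 37° C, 5% CO2, then CellTiter-Glo luminescence for viability.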

| SMILES | pEC50 |
| --- | --- |
| CS(=O)(=O)CCCn1ncc2cc(OCCN3CCC4(CC3)C(=O)Nc3ccc(Cl)cc34)ccc21 [Compound 14, 5-chloro-1′-(2-{[1-(3-methanesulfonylpropyl)-1H-indazol-5-yl]oxy}ethyl)-1,2-dihydrospiro[indole-3,4′-piperidin]-2-one] | 6.42 |
| O=C1Nc2ccc(Cl)cc2C12CCN(CCOc1ccc3c(cnn3C3COC3)c1)CC2 [Compound 15, 5-chloro-1′-(2-{[1-(oxetan-3-yl)-1H-indazol-5-yl]oxy}ethyl)-1,2-dihydrospiro[indole-3,4′-piperidin]-2-one] | 6.47 |
| CC(C)n1ncc2cc(OCCN3CCC4(CC3)C(=O)Nc3ccc(Cl)cc34)ccc21 [Compound 16, 5-chloro-1′-(2-{[1-(propan-2-yl)-1H-indazol-5-yl]oxy}ethyl)-1,2-dihydrospiro[indole-3,4′-piperidin]-2-one] | 6.57 |
| O=C1Nc2ccc(Cl)cc2C12CCN(CCOc1ccc(S(=O)(=O)[C@H]3C[C@@H](O)C3)cc1)CC2 [Compound 17, 5-chloro-1′-[2-(4-{[(cis)-3-hydroxycyclobutyl]sulfonyl}phenoxy)ethyl]-1,2-dihydrospiro[indole-3,4′-piperidin]-2-one] | 6.97 |
| O=C1CCc2cc(OCCN3CCC4(CC3)C(=O)Nc3ccc(Cl)cc34)ccc2N1C1COC1 [Compound 99, 5-chloro-1′-(2-{[1-(oxetan-3-yl)-2-oxo-1,2,3,4-tetrahydroquinolin-6-yl]oxy}ethyl)-1,2-dihydrospiro[indole-3,4′-piperidin]-2-one] | 6.67 |
| CS(=O)(=O)c1ccc(OCCN2CCC3(CC2)C(=O)Nc2ccc(C#N)cc23)cc1C(F)F [Compound 100, 1′-{2-[3-(difluoromethyl)-4-methanesulfonylphenoxy]ethyl}-2-oxo-1,2-dihydrospiro[indole-3,4′-piperidine]-5-carbonitrile] | 7.20 |
| CS(=O)(=O)C1(c2ccc(OCCN3CCC4(CC3)C(=O)Nc3ccc(C#N)cc34)cc2)CC1 [Compound 101, 1′-{2-[4-(1-methanesulfonylcyclopropyl)phenoxy]ethyl}-2-oxo-1,2-dihydrospiro[indole-3,4′-piperidine]-5-carbonitrile] | 6.71 |
| CS(=O)(=O)C1(c2ccc(OCCN3CCC4(CC3)C(=O)Nc3ccc(Cl)cc34)cc2)CC1 [Compound 102, 5-chloro-1′-{2-[4-(1-methanesulfonylcyclopropyl)phenoxy]ethyl}-1,2-dihydrospiro[indole-3,4′-piperidin]-2-one] | 7.33 |
| CN1c2ccc(OCCN3CCC4(CC3)C(=O)Nc3ccc(Cl)cc34)cc2CCS1(=O)=O [Compound 103, 6-(2-{5-chloro-2-oxo-1,2-dihydrospiro[indole-3,4′-piperidin]-1′-yl}ethoxy)-1-methyl-3,4-dihydro-1H-2λ^6,1-benzothiazine-2,2-dione] | 6.95 |
| CN1c2ccc(OCCN3CCC4(CC3)C(=O)Nc3ccc(C#N)cc34)cc2CCS1(=O)=O [Compound 104, 1′-{2-[(1-methyl-2,2-dioxo-3,4-dihydro-1H-2λ^6,1-benzothiazin-6-yl)oxy]ethyl}-2-oxo-1,2-dihydrospiro[indole-3,4′-piperidine]-5-carbonitrile] | 6.23 |
| N#Cc1ccc2c(c1)C1(CCN(CCOc3ccc4c(c3)CCC(=O)N4CC(F)F)CC1)C(=O)N2 [Compound 105, 1′-(2-{[1-(2,2-difluoroethyl)-2-oxo-1,2,3,4-tetrahydroquinolin-6-yl]oxy}ethyl)-2-oxo-1,2-dihydrospiro[indole-3,4′-piperidine]-5-carbonitrile] | 6.66 |
| O=C1CCc2cc(OCCN3CCC4(CC3)C(=O)Nc3ccc(Cl)cc34)ccc2N1CC(F)F [Compound 106, 5-chloro-1′-(2-{[1-(2,2-difluoroethyl)-2-oxo-1,2,3,4-tetrahydroquinolin-6-yl]oxy}ethyl)-1,2-dihydrospiro[indole-3,4′-piperidin]-2-one] | 7.16 |
